Measurements published in article PMC5732813, “Novel piplartine-containing ruthenium complexes: synthesis, cell growth inhibition, apoptosis induction and ROS production on HCT116 cells” (Oncotarget, 2017).

Assays:
HCT116 cells [1] = assay: Cellular reactive oxygen species levels (DCF-DA); type: cell-based, human; conditions: 1 h, PL 10 μM
Protocol: The levels of ROS were measured according to previously described using DCF-DA (Sigma-Aldrich Co., Saint Louis, MO, USA). In brief, cells were treated with the complexes for 1 and 3 h. Then, the cells were collected, washed with saline and resuspended in FACS tubes with saline containing 5 μM DCF-DA for 30 min.

HCT116 cells [2] = conditions: HCT116, 24 and 48h; PL 10 μM
Protocol: (§1) To investigate the mechanisms involved in cytotoxic action of the complexes, a new set of experiments was performed. In all experiments, 2 mL of a HCT116 cell solution (7 x 10^4 cells/mL) was inserted in 24-well plates and incubated overnight to allow the cells to adhere to the plate surface. […] The negative control was treated with the vehicle (0.1% of a solution containing 70% sorbitol, 25% tween 80 and 5% water) used for diluting the compounds tested. […] Cell viability was assessed using trypan blue exclusion assay for all experiments.
For apoptosis detection, we used a FITC Annexin V Apoptosis Detection Kit I (BD Biosciences, San Jose, CA, EUA) and the analysis were performed according to the manufacturer’s instructions. Briefly, the cells treated were collected after the indicated time, washed twice with cold saline and resuspended in 300 μL binding buffer. Then, it was added 5 μL of Annexin V-FITC staining buffer and 5 μL of propidium iodide. The mixture was incubated in the dark at 37°C for 15 min. Cell fluorescence was measured by flow cytometry as described above.
In a new set of experiments, the cells were pre-treated for 1 h with 5 mM NAC, then incubated with the complexes in the established concentration for 48 h. The cells were then trypsinized and the FITC Annexin V Apoptosis Detection assay and trypan blue exclusion assay were conducted as described above.

caspase-3 = assay: Caspase-3 activation assay (DEVD-pNA, colorimetric); conditions: HCT116, DEVD-pNA, 48h; PL 10 μM
Protocol: as §1
A caspase-3 colorimetric assay kit (Sigma-Aldrich Co., Saint Louis, MO, USA) was used to investigate caspase-3 activation on complexes-treated HCT116 cells based on the cleavage of DEVD-pNA and the analysis was performed according to the manufacturer’s instructions. Briefly, cells were lysed by incubation with cell lysis buffer on ice for 10 min and then centrifuged. Enzyme reactions were carried out in a 96-well flat-bottom microplate. To each reaction mixture, 5 μL cell lysate was added. Absorbance at 405 nm was measured using the SpectraMax 190 Microplate Reader (Molecular Devices, Sunnyvale, CA, EUA). The results were expressed as specific activity (IU/mg protein) of caspase-3.

HCT116 cells [3] = assay: Measurement of the mitochondrial transmembrane potential (rhodamine 123); conditions: HCT116, rhodamine 123, 24h; PL 10 μM
Protocol: as §1
Mitochondrial transmembrane potential was determined by the retention of the dye rhodamine 123 [59]. Cells were incubated with rhodamine 123 (5 μg/mL, Sigma-Aldrich Co., Saint Louis, MO, USA) at 37 °C for 15 min in the dark and washed with saline. The cells were then incubated again in saline at 37 °C for 30 min in the dark and cell fluorescence was determined by flow cytometry as described above.

calf thymus DNA (ctDNA) = assay: DNA intercalation assay (ethidium bromide displacement); type: binding; conditions: ctDNA 15 μg/mL, ethidium bromide 1.5 μM; complexes 5, 10 and 20 μM; doxorubicin 10 μM; data not shown
Protocol: DNA intercalation was assessed by examining the ability of the complexes to displace ethidium bromide from ctDNA (Sigma-Aldrich Co., Saint Louis, MO, USA). Sexplicate assays (100 μL) were conducted in 96-well plates and contained 15 μg/mL ctDNA, 1.5 μM ethidium bromide and 5, 10 and 20 μM of each complexes in saline solution. […] Fluorescence was measured using excitation and emission wavelengths of 320 nm and 600 nm, respectively using the spectraMax Microplate Reader (Molecular Devices, Sunnyvale, CA, EUA).

Compound: COc1cc(/C=C/C(=O)N2CCC=CC2=O)cc(OC)c1OC [Piplartine]
- intracellular ROS levels (HCT116 cells [1]): induced increasing oxidative stress
- early and late apoptosis (annexin-V/PI) (HCT116 cells [2]): induced increasing in the early and late apoptosis
- activation of caspase-3 (caspase-3): activation of caspase-3
- mitochondrial depolarization (HCT116 cells [3]): Mitochondrial depolarization

Compound: COc1cccc2c1C(=O)c1c(O)c3c(c(O)c1C2=O)C[C@@](O)(C(=O)CO)C[C@@H]3O[C@H]1C[C@H](N)[C@H](O)[C@H](C)O1 [Doxorubicin]
- DNA intercalation (decrease of ethidium bromide fluorescence) (calf thymus DNA (ctDNA)): significantly reduced fluorescence
